From patent US9586993B2, “CD44v6-derived peptides for treating pancreatic cancer” (AMCURE GMBH, priority 2012, dated 2017)
“Also recorded” adds a separate entry of the source. No end group written: not given here. *: point of attachment. DOTA = O=C(O)CN1CCN(CC(=O)O)CCN(CC(=O)*)CCN(CC(=O)O)CC1; PEG2000 = polyethylene glycol, 2000 Da; Myristoyl = CCCCCCCCCCCCCC(=O)*

Experiments:
[1] = tested on: L3.6p1 pancreatic carcinoma cells; experiment: Human orthotopic model, L3.6p1 cells in the pancreas of nude mice; assay type: in vivo, mouse; details: for outgrowth / size of the primary tumor: 20 μg per injection i.p. three times per week for three weeks; for outgrowth / size of the primary tumor / metastasis formation (liver): start one week after implantation; for metastasis formation (liver): 20 μg per injection i.p. three times per week
Description: In the case of the human orthotopic model, L3.6p1 pancreatic carcinoma cells (passage 24-26) were suspended in Hank's balanced salt solution (Invitrogen, Karlsruhe, Germany) after trypsinization. The cells were injected orthotopically in the pancreas of male nude mice as described (Bruns C J et al. (1999) Neoplasia 1(1):50-62). Two groups of 15 mice each were injected i.p. 7 days later with either the human v6 peptide respectively rat control peptide (20 μg). For all experiments described and depicted herein either the rat 14mer control peptide or the human 14mer peptide were used. All experiments were then repeated with the rat 5mer control peptide or the human 5mer peptide (N-R-W-H-E, SEQ ID NO: 2). […] The injection was repeated three times per week for 21 days. Two days after the last treatment the animals were killed.
(§1) 7 μm thick paraffin sections were deparaffinized and rehydrated. For P-Met staining antigen unmasking was achieved by boiling the slides in 1 mM EDTA pH 8.0 followed by incubation for 15 minutes at a sub-boiling temperature, for CD31 staining the sections were treated with Proteinase K (8 μg/ml) for 10 min at 37° C. For immunofluorescence staining of P-Met, unspecific binding was blocked with 5% goat serum (DAKO, Glostrup, Denmark) (diluted in 1×PBS/0.3% Triton X-100) for 60 minutes. In the case of immunohistochemistry, endogenous peroxidases were at first blocked with 3% H2O2 in PBS followed by incubation with biotin blocking system (Dako, Glostrup, Denmark) and then unspecific binding was inhibited by incubation with 5% FCS in PBS. The sections were incubated with the P-Met antibody (D26, dilution 1:50 in 1×PBS/1% BSA/0.3% Triton X-100), Met antibody (C-28, dilution 1:50), GFP antibody (sc-101525, dilution 1:50) or antibody (5 μg/ml) over night or VFF18 (5 μg/ml) o/n at 4° C. After washing in PBS the sections were incubated with Alexa Fluor R 546 goat anti-rabbit (in case of immunofluorescence P-Met and Met staining, dilution 1:500) or a biotinylated secondary antibody (for immunohistochemical stainings rabbit anti-rat antibody for VFF18 and CD31, goat anti-rabbit for P-Met, cleaved Caspase-3 and cleaved Caspase-8 and rabbit anti-mouse for GFP, dilution 1:500) for 45 minutes. For DAB (3,3′-diaminobenzidine) staining the sections were treated with a streptavidin-peroxidase conjugate (Dako, Glostrup, Denmark) and developed with DAB substrate system (3,3′-diaminobenzidine; Biozol, Eching, Germany) For immunofluorescence DAPI was used for nuclear staining.
The three CD44v6 specific compounds (v6 5mer, PEG840-v6 5mer and PEG2000-v6 5mer of human origin) and a control peptide were applied in three concentrations (2 μg, 20 μg, 200 μg per injection) three times per week i.p. for 4 weeks. One week before start of the treatment the L3.6p1 tumor cells were orthotopically implanted into nude mice.
Animals were implanted orthotopically with L3.6p1 cells. Tumor growth was allowed for one week before the treatment with the linear v6 14mer, the cyclic v6 8mer as well as the control peptide (rat v6 14mer) was started. All peptides were injected three times per week at a concentration of 0.2, 2 and 10 μg per injection for 3 weeks. At the end of the treatment animals were sacrificed.
A comparison of different CD44v6 peptide derivatives was performed in animals bearing a orthotopic L3.6p1 tumor. 10 groups of 5 animals each received a dose of 20 μg peptide per injection three times per week for 3 weeks with the compounds listed in Table 4. Three weeks after starting the treatment the animals were sacrificed and analyzed for macroscopic metastases and tumor volume.

BSp73ASs6 cells = experiment: Rat syngeneic model, subcutaneous BSp73ASs6 tumors, metastasis formation; assay type: in vivo; details: 200 μg per injection three times a week; for outgrowth of primary tumors: 28 days; for metastasis (axillary lymph nodes and lungs): intra-tumoral or intravenously, start one week after cell injection
Description: In the case of the rat syngeneic model, 1×10^6 pancreatic cells (BSp73AS and its transfectants) were subcutaneously injected into the right posterior flank of the animals. Tumors developed for four weeks. During this time period animals injected with BSp73ASs6 cells expressing Met-shRNA or control-shRNA received doxycycline in the drinking water. At the end of the experiment, primary tumors were isolated. Lungs and axillary lymph nodes were analyzed. The tissues were incubated for 24 h in a zinc-fixative (0.5 g calcium acetate, 5.0 g zinc acetate, 5.0 g zinc chloride, in 1 L 0.1 M Tris pH 7.4) and embedded in paraffin for further analysis. In case of peptide or antibody treatment tumors developed for one week before the first treatment. Where indicated, animals received 200 μg of peptide or antibody per injection three times per week for four weeks. Tumor growth was monitored weekly using a caliper Animals were killed at day 28 or 30 after start of the treatment.
For histomorphological analysis paraffin-embedded sections of lungs were stained with hematoxylin and eosin and periodic acid-Schiff (H&E or PAS). Serial sections of the whole tissue blocks were examined by analyzing slices every 20 μm; in each slice, the presence and the extension of the metastatic deposit was assessed, according to the procedure routinely used by pathologists to evaluate the presence of micrometastases.
Rat peptides had the sequences KEKWFENEWQGKNP (SEQ ID NO: 10) and NEWQG (SEQ ID NO: 11). BSp73ASs6 cells were subcutaneously injected into syngeneic rats and rat CD44v6 peptides of SEQ ID NO: 10 or SEQ ID NO: 11 (or mouse control peptides) or the CD44v6 antibody (or IgGs as a control) were injected intra-tumoral or intravenously three times a week. […] This is compatible with the fact that also BSp73AS cells or BSp73ASv1-10Δv6 cells can induce the formation of primary tumors similarly to the v6 transfectants.

[2] = tested on: Met activation and downstream signaling to ERK; experiment: HGF-induced activation of Met and ERK in L3.6p1 cells (western blot); assay type: cell-based, human; details: HGF 10 ng/ml
Description: Serum-starved cells (24 hours) were induced with the growth factor HGF (10 ng/mL) at 37° C. for 5 minutes. Where indicated, the cells were treated with peptides (100 ng/ml) prior to induction at 37° C. for 10 minutes (100 ng/mL CD44v6 peptide or control peptide). Following the induction with HGF, cells were washed with ice-cold phosphate-buffered saline (PBS). To detect activated Met and Erk, cells were lysed in sodium dodecyl sulfate (SDS)-sample buffer containing 100 mM dithiothreitol (DTT), boiled and subjected to western blot analysis using antibodies against phospho-Met and ERK. The loading controls were performed on the same blot after stripping (62.5 mM Tris, pH 6.8, 2% SDS, 0.8% DTT) by probing with the Met respectively ERK antibody. Blots were stained using the enhanced chemiluminescence system (Thermo Fisher Scientific, Schwerte, Germany). Bands in western blot analysis were quantified with the program Image J (National Institutes of Health).
To expand the studies to human pancreatic tumors, the highly metastatic human pancreatic carcinoma cells L3.6p1 (Bruns, et al. Neoplasia (1999), 1(1):50-62) were investigated. These cells originate from the […] cells that have been passaged several times in the liver and the pancreas, a step that rendered them more and more metastatic. It was confirmed that Met is dependent on CD44v6 for its activation and signaling in these cells (FIG. 4A). The L3.6p1 cells were treated with HGF in the presence or absence of a human v6 peptide of SEQ ID NO: 2 or SEQ ID NO:6 and Met activation and downstream signaling to ERK was measured.

[3] = tested on: BSp73ASs6 lung metastases; experiment: Apoptosis in established lung metastases (cleaved Caspase-3 and Caspase-8 staining); assay type: in vivo, rat; details: for apoptotic cells in lung metastases (cleaved Caspase 3): injection every second day from three weeks after cell injection
Description: as §1
One hypothesis for the disappearance of metastases is that the peptides induce apoptosis of CD44v6-expressing metastatic cells in the secondary organs. In order to test this hypothesis, the experiment described above using the BSp73ASs6 cells was repeated. The cells were injected subcutaneously in syngeneic rats and the tumor was allowed to develop for three weeks. After that time the animals were separated in two groups of 10 animals that were injected either with the specific rat CD44v6 peptide or with the control peptide (mouse) every second day. One day following each injection of the peptide, the lungs of one animal were removed and apoptosis was measured using an antibody that detects the cleaved form of Caspase 3. […] From these experiments, it is concluded that the CD44v6 peptide induces apoptosis of metastatic cells.
To discriminate whether the intrinsic pathway characterized by the release of mitochondrial proteins or the extrinsic pathway activated by ligand-bound death receptors for apoptosis was induced by the v6 peptide the expression of cleaved caspase-8 in the metastases treated with the v6 peptide was investigated. […] From these experiments we conclude that the CD44v6 peptide induces apoptosis of metastatic cells via the extrinsic apoptotic pathway.

[4] = listed as rat-specific peptide (ctrl peptide)

In the case of “PEG840-KEQWFGNRWHEGYR-OH [PEG840 14-mer]”, the “outgrowth / size of the primary tumor” value [1] is reported as “significant reduction in tumor growth” and the “metastasis formation (liver)” value [1] is reported as “decrease of metastatic spreading”.
In the case of “DOTA-keqwfGNRWHEGyr [DOTA CD44v6-14 [daa7]]”, the “metastasis formation (liver)” value [1] is reported as “decrease of metastatic spreading”.
“Myr-KEQWFGNRWHEGYR (Myristoyl-KEQWFGNRWHEGYR) [Myristoyl-14-mer]” was tested, and the “outgrowth / size of the primary tumor” value [1] was “no inhibitory effect on tumor growth”.
For “NEWQG [rat 5mer, rat CD44v6 5mer peptide]”, the “metastasis and micro-metastasis in lung sections (PAS and H&E staining)” value (BSp73ASs6 cells) was “neither metastasis nor micro-metastasis could be detected”, the “outgrowth of primary tumors” value (BSp73ASs6 cells) was “not influenced by either treatment” and the “metastasis (axillary lymph nodes and lungs)” value (BSp73ASs6 cells) was “completely inhibited metastasis”. The “inhibition of HGF-induced activation (phosphorylation) of Met and ERK” value [2] was “had no influence on receptor activation and signal transduction” and the “results in the human orthotopic model compared with the 14mer peptides” value ([1]; 20 μg i.p. three times per week for 21 days) was “same results as for the 14mer peptides were observed”.
For “mouse control peptides: mouse CD44v6 peptide used as control in the rat system (WFQNGWQGKNP) [reference compound]”, the “lung metastasis at day twenty-two” value ([3]; injection every second day) was “metastatic spreading was evident in the lungs”, the “apoptotic cells in lung metastases (cleaved Caspase 3)” value [3] was “No apoptosis at all was detected” and the “metastasis (axillary lymph nodes and lungs)” value (BSp73ASs6 cells) was “numerous metastases were detected in the lungs”.
In the case of “KEKWFENEWQGKNP [rat 14mer, rat CD44v6 14mer peptide; control in human systems]”, the “apoptosis twelve days after injection” value ([3]; cleaved Caspase 3) is reported as “less apoptosis was observed”, the “time of maximum of apoptosis” value ([3]; cleaved Caspase 3, injection every second day) is reported as “eight days after the first injection” and the “cleaved caspase-8 in lung metastases” value ([3]; injection every second day) is reported as “kinetic of activation of caspase-8 similar to the one obtained for caspase-3”. For the same substance, the “lung metastasis at day twenty-two” value ([3]; injection every second day) was “no metastasis could be detected anymore”, the “apoptotic cells in lung metastases (cleaved Caspase 3)” value [3] was “detected as early as three days after the first injection” and the “metastasis and micro-metastasis in lung sections (PAS and H&E staining)” value (BSp73ASs6 cells) was “neither metastasis nor micro-metastasis could be detected”. For the same substance, the “outgrowth of primary tumors” value (BSp73ASs6 cells) was “not influenced by either treatment”, the “metastasis (axillary lymph nodes and lungs)” value (BSp73ASs6 cells) was “completely inhibited metastasis” and the “inhibition of HGF-induced activation (phosphorylation) of Met and ERK” value [2] was “had no influence on receptor activation and signal transduction”. For the same substance, the “outgrowth / size of the primary tumor” value [1, 4] was “had no influence on metastasis formation or on growth of the primary tumor” and the “metastasis formation (liver)” value [1, 4] was “neither any influence on metastasis formation; also recorded: had no influence on metastasis formation or on growth of the primary tumor”.
In the case of DOTA-cy[KRWHE] [cycl 5 mer], the “outgrowth / size of the primary tumor” value [1] is reported as “strongest reduction of tumor size” and the “metastasis formation (liver)” value [1] is reported as “complete inhibition of metastasis”.
“{DOTA}-KEQWFGNRWHEGYR [DOTA CD44v6-14 [r^14]]” was tested, and the “metastasis formation (liver)” value [1] was “complete inhibition of metastasis”.
NRWHE [human 5mer, NRWHE] was tested, and the “side effects in the animals” value ([1]; 200 μg per injection i.p. three times per week for 4 weeks) was “did not lead to side effects”.
“Myr-Y-cy[KGNRWHEG] (Myristoyl-YKGNRWHEG; also: cyclic, closure not given here, Myr-Tyr attached, site not given here) [Myr-Y-cycl 8 mer]” was tested, and the “outgrowth / size of the primary tumor” value [1] was “significant reduction in tumor growth” and the “metastasis formation (liver)” value [1] was “decrease of metastatic spreading”.
With “PEG2000-KEQWFGNRWHEGYR-OH [PEG2000 14-mer]” the “outgrowth / size of the primary tumor” value [1] was “strongest reduction of tumor size”, the “outgrowth / size of the primary tumor” value ([1]; listed as PEGylated 14mer (PEG 2000)) was “significant reduction in tumor growth” and the “metastasis formation (liver)” value [1] was “decrease of metastatic spreading”.
